Assay results as given in patent US20250034159A1, “INHIBITORS OF EPIDERMAL GROWTH FACTOR RECEPTOR” (ORIC Pharmaceuticals, Inc., priority 2021, published 2025).
Like-named read-outs stand apart in the source and are kept apart here.

Tests used:
[1] = target: recombinant human EGFR L858R/C797S double mutant protein (Homo sapiens (Human), UniProt P00533, C797S/L858R); experiment: Biological Activity Assay B: biochemical assay against EGFR L858R/C797S protein (EGFR LR/CS)
Outline: (§1)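 Compounds were tested as 16-point serial dilutions (final DMSO 2.5%) with a Phosphosens peptide sensor/ATP working solution (40 uM/4 mM). The signal was read kinetically over 90 cycles at 120 s intervals. IC50s came from 4-parameter fits of per-well slopes.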

[2] = target: recombinant human EGFR exon 19 deletion/C797S double mutant protein (Homo sapiens (Human), UniProt P00533, C797S/DEL746-750); experiment: Biological Activity Assay C: biochemical assay against EGFR exon 19 deletion/C797S protein (EGFR d19/CS)
recombinant human EGFR exon 19 deletion/C797S double mutant protein, sequence (P00533 other isoform, or with tags, fused parts or gaps C797S/del 1-668/del 746-750 limits assumed): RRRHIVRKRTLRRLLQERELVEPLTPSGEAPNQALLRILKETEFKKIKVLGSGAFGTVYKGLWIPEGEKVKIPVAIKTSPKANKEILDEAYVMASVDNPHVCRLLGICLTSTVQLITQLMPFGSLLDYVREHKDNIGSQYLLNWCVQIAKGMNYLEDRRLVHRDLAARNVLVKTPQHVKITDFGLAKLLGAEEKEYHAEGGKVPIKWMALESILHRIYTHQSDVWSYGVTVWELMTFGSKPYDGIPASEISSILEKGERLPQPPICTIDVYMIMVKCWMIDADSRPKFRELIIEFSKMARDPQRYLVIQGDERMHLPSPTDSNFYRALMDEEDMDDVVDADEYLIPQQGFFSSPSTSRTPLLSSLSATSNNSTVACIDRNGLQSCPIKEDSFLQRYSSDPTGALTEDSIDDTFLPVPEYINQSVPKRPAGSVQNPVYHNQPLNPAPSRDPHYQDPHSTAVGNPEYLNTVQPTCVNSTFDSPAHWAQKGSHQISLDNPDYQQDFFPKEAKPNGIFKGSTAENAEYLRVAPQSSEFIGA
Outline: as §1

[3] = test system: Ba/F3_EGFR WT cells; experiment: Biological Activity Assay D: BaF3 cell proliferation assay, EGFR wild-type (BaF3 WT); type: cell-based; conditions: Ba/F3 EGFR, read-out: BaF3 WT IC50
[4] = test system: BaF3_EGFR LR/CS cells; experiment: Biological Activity Assay D: BaF3 cell proliferation assay, EGFR L858R/C797S mutant (BaF3 LR/CS); type: cell-based; conditions: Ba/F3 EGFR, read-out: BaF3 LR/CS IC50
[5] = test system: BaF3_EGFR d19/CS cells; experiment: Biological Activity Assay D: BaF3 cell proliferation assay, EGFR exon 19 deletion/C797S (BaF3 d19/CS); type: cell-based; conditions: Ba/F3 EGFR, read-out: BaF3 d19/CS IC50
[6] = Ba/F3_EGFR WT cells, ~72 hours, CellTiter-Glo
[7] = BaF3_EGFR LR/CS cells, ~72 hours, CellTiter-Glo
[8] = BaF3_EGFR d19/CS cells, ~72 hours, CellTiter-Glo

recombinant human EGFR L858R/C797S double mutant protein, sequence (P00533 25-1210 C797S/L858R): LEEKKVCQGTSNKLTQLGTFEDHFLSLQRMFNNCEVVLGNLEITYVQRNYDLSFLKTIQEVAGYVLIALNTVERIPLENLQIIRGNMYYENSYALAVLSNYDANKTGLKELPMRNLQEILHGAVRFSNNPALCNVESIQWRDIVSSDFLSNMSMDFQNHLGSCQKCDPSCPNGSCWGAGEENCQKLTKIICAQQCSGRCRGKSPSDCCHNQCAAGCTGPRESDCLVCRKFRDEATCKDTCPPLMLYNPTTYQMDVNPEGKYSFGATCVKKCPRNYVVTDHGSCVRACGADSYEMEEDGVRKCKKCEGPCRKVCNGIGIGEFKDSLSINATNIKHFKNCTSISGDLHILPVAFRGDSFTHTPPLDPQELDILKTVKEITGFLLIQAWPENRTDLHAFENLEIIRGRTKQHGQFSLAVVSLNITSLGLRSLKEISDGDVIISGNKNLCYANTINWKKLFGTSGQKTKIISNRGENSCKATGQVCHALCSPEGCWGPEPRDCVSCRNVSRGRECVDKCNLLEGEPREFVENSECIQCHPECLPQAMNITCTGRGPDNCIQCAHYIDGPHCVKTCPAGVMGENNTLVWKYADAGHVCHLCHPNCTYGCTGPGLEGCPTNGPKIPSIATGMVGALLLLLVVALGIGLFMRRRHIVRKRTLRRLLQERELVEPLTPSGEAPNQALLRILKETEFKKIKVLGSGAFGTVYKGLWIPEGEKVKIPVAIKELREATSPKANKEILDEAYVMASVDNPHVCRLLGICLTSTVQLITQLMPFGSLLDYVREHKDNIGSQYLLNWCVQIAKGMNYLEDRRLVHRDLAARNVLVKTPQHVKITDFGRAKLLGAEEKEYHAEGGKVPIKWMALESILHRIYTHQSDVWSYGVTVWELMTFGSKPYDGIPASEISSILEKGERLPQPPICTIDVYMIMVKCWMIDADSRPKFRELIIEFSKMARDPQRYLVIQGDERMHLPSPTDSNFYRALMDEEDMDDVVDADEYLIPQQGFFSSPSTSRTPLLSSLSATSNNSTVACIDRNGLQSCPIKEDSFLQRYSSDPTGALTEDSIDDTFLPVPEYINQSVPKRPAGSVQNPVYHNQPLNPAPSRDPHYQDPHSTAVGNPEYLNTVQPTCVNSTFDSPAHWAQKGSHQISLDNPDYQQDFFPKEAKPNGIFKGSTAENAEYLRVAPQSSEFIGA

Row | IC50 [1] | IC50 [2] | IC50 [3, 6] | IC50 [4, 7] | IC50 [5, 8] | SMILES | IC50 ([3]; 72 h) | IC50 ([4]; 72 h) | IC50 ([5]; 72 h)
1 | 0.242 nM | 0.17 nM | 8.67 nM | 0.402 nM | 0.244 nM | CN1CCN(c2ccc(-c3cc4c(-c5cn(CCCO)nc5-c5ccc(F)cc5)ncnc4[nH]3)cc2)CC1 [Example 19, 3-[3-(4-Fluorophenyl)-4-{6-[4-(4-methylpiperazin-1-yl)phenyl]-7H-pyrrolo[2,3-d]pyrimidin-4-yl}-1H-pyrazol-1-yl]propan-1-ol] |  |  | 
2 | 0.594 nM | 0.473 nM | 4530 nM | 92.5 nM | 72.5 nM | Fc1ccc(-c2nn(CC3COC3)cc2-c2ncnc3oc(-c4ccccc4)cc23)cc1 [Example 47, 4-{3-(4-Fluorophenyl)-1-[(oxetan-3-yl)methyl]-1H-pyrazol-4-yl}-6-phenylfuro[2,3-d]pyrimidine] |  |  | 
3 | 1.2 nM | 0.45 nM | 2430 nM | 80.3 nM | 90.6 nM | OCCCn1cc(-c2ncnc3oc(-c4ccccc4)nc23)c(-c2ccc(F)cc2)n1 [Example 5, 3-[3-(4-Fluorophenyl)-4-(2-phenyl[1,3]oxazolo[5,4-d]pyrimidin-7-yl)-1H-pyrazol-1-yl]propan-1-ol] |  |  | 
4 | 1.13 nM | 1.35 nM | 20000 nM | 209 nM | 339 nM | CNC(=O)CCc1nc(-c2ccc(F)cc2)c(-c2ncnc3oc(-c4ccccc4)cc23)o1 [Example 36, 3-[4-(4-fluorophenyl)-5-(6-phenylfuro[2,3-d]pyrimidin-4-yl)-1,3-oxazol-2-yl]-N-methylpropanamide] |  |  | 
5 | 2.76 nM | 4.23 nM | 13300 nM | 407 nM | 319 nM | O=S1(=O)CCC[C@H](n2cc(-c3ncnc4oc(-c5ccccc5)cc34)c(-c3ccc(F)cc3)n2)C1 (single isomer, unassigned) [Example 100] |  |  | 
6 | 0.91 nM | 0.73 nM | 4290 nM | 184 nM | 450 nM | COC(C)(C)Cn1cc(-c2ncnc3oc(-c4ccccc4)cc23)c(-c2ccc(F)cc2)n1 [Example 93, 4-[3-(4-fluorophenyl)-1-(2-methoxy-2-methylpropyl)-1H-pyrazol-4-yl]-6-phenylfuro[2,3-d]pyrimidine] |  |  | 
7 | 1.27 nM | 0.752 nM | 5950 nM | 236 nM | 213 nM | CC1(Cn2cc(-c3ncnc4oc(-c5ccccc5)cc34)c(-c3ccc(F)cc3)n2)COC1 [Example 59, 4-{3-(4-fluorophenyl)-1-[(3-methyloxetan-3-yl)methyl]-1H-pyrazol-4-yl}-6-phenylfuro[2,3-d]pyrimidine] |  |  | 
8 | 1.27 nM | 1.49 nM | 2190 nM | 256 nM | 315 nM | COC1(CCn2cc(-c3ncnc4oc(-c5ccccc5)cc34)c(-c3ccc(F)cc3)n2)COC1 [Example 113, 4-{3-(4-fluorophenyl)-1-[2-(3-methoxyoxetan-3-yl)ethyl]-1H-pyrazol-4-yl}-6-phenylfuro[2,3-d]pyrimidine] |  |  | 
9 | 14.5 nM | 8.12 nM | > 20000 nM | 2690 nM | 1290 nM | CC(C)(O)CCc1nc(-c2ccc(F)cc2)c(-c2ncnc3sc(-c4ccccc4)cc23)o1 [Example 66, 4-[4-(4-fluorophenyl)-5-(6-phenylthieno[2,3-d]pyrimidin-4-yl)-1,3-oxazol-2-yl]-2-methylbutan-2-ol] |  |  | 
10 | 1.36 nM | 1.26 nM | 4730 nM | 130 nM | 114 nM | Fc1ccc(-c2nn(CC3(F)COC3)cc2-c2ncnc3oc(-c4ccccc4)cc23)cc1 [Example 32, 4-{1-[(3-fluorooxetan-3-yl)methyl]-3-(4-fluorophenyl)-1H-pyrazol-4-yl}-6-phenylfuro[2,3-d]pyrimidine] |  |  | 
11 | 0.75 nM | 0.32 nM | 2090 nM | 116 nM | 95.2 nM | CC(C)(O)Cn1cc(-c2ncnc3oc(-c4ccccc4)cc23)c(-c2cccc(F)c2)n1 [Example 95, 1-[3-(3-Fluorophenyl)-4-(6-phenylfuro[2,3-d]pyrimidin-4-yl)-1H-pyrazol-1-yl]-2-methylpropan-2-ol] |  |  | 
12 | 0.48 nM | 0.37 nM | 2730 nM | 23.2 nM | 18.4 nM | OCC(F)(F)Cn1cc(-c2ncnc3oc(-c4ccccc4)cc23)c(-c2ccc(F)cc2)n1 [Example 78, 2,2-Difluoro-3-[3-(4-fluorophenyl)-4-(6-phenylfuro[2,3-d]pyrimidin-4-yl)-1H-pyrazol-1-yl]propan-1-ol] |  |  | 
13 | 0.111 nM | 0.0769 nM | 88.4 nM | 1.29 nM | 1.22 nM | CN1CCN(c2ccc(-c3cc4c(-c5oc(CCCO)nc5-c5ccc(F)cc5)ccnc4[nH]3)cc2)CC1 [Example 29, 3-[4-(4-Fluorophenyl)-5-{2-[4-(4-methylpiperazin-1-yl)phenyl]-1H-pyrrolo[2,3-b]pyridin-4-yl}-1,3-oxazol-2-yl]propan-1-ol] |  |  | 
14 | 0.33 nM | 0.34 nM | 1190 nM | 39.2 nM | 79.4 nM | O=S1(=O)CC[C@@H](Cn2cc(-c3ncnc4oc(-c5ccccc5)cc34)c(-c3ccc(F)cc3)n2)C1 (single isomer, unassigned) [Example 97] |  |  | 
15 | 0.327 nM | 0.192 nM | 2100 nM | 36.4 nM | 22 nM | O=S1(=O)CC(n2cc(-c3ncnc4oc(-c5ccccc5)cc34)c(-c3ccc(F)cc3)n2)C1 [Example 40, 3-[3-(4-Fluorophenyl)-4-(6-phenylfuro[2,3-d]pyrimidin-4-yl)-1H-pyrazol-1-yl]-1λ6-thietane-1,1-dione] |  |  | 
16 | 1.08 nM | 0.732 nM | 483 nM | 25.3 nM | 21.4 nM | OCCCc1cc(-c2ccnc3[nH]c(-c4ccccc4)cc23)n(-c2ccc(F)cc2)n1 [Example 12, 3-[1-(4-fluorophenyl)-5-{2-phenyl-1H-pyrrolo[2,3-b]pyridin-4-yl}pyrazol-3-yl]propan-1-ol] |  |  | 
17 | 0.39 nM | 0.24 nM | 2240 nM | 73.2 nM | 40 nM | O[C@H]1C[C@H](Cn2cc(-c3ncnc4oc(-c5ccccc5)cc34)c(-c3ccc(F)cc3)n2)C1 [Example 43, (1r,3r)-3-{[3-(4-Fluorophenyl)-4-(6-phenylfuro[2,3-d]pyrimidin-4-yl)-1H-pyrazol-1-yl]methyl}cyclobutan-1-ol] |  |  | 
18 | 0.141 nM | 0.0926 nM | 71.4 nM | 2.06 nM | 1.83 nM | CN1CCN(c2ccc(-c3cc4c(-c5nn(CCCO)nc5-c5ccc(F)cc5)ccnc4[nH]3)cc2)CC1 [Example 18, 3-[4-(4-Fluorophenyl)-5-{2-[4-(4-methylpiperazin-1-yl)phenyl]-1H-pyrrolo[2,3-b]pyridin-4-yl}-2H-1,2,3-triazol-2-yl]propan-1-ol] |  |  | 
19 | 1.29 nM | 0.466 nM | 1400 nM | 32.1 nM | 36.4 nM | OCCCn1cc(-c2ccnc3[nH]c(-c4ccccc4)nc23)c(-c2ccc(F)cc2)n1 [Example 4, 3-[3-(4-Fluorophenyl)-4-(2-phenyl-3H-imidazo[4,5-b]pyridin-7-yl)-1H-pyrazol-1-yl]propan-1-ol] |  |  | 
20 | 1.62 nM | 0.55 nM | 3320 nM | 132 nM | 137 nM | CS(=O)(=O)N1CC(n2cc(-c3ncnc4oc(-c5ccccc5)cc34)c(-c3ccc(F)cc3)n2)C1 [Example 114, 4-{3-(4-fluorophenyl)-1-[1-(methanesulfonyl)azetidin-3-yl]-1H-pyrazol-4-yl}-6-phenylfuro[2,3-d]pyrimidine] |  |  | 
21 | 0.39 nM | 0.27 nM | 115 nM | 8.69 nM | 4.96 nM | CS(=O)(=O)N1CC[C@@H](n2cc(-c3ncnc4oc(-c5ccccc5)cc34)c(-c3ccc(F)cc3)n2)C1 (single isomer, unassigned) [Example 101] |  |  | 
22 | 1.25 nM | 1.62 nM | 2620 nM | 84.1 nM | 151 nM | FCCCCn1cc(-c2ncnc3oc(-c4ccccc4)cc23)c(-c2ccc(F)cc2)n1 [Example 71, 4-[1-(4-fluorobutyl)-3-(4-fluorophenyl)-1H-pyrazol-4-yl]-6-phenylfuro[2,3-d]pyrimidine] |  |  | 

Row | SMILES | IC50 [1] | IC50 [2] | IC50 [3, 6] | IC50 [4, 7] | IC50 [5, 8] | IC50 ([3]; 72 h) | IC50 ([4]; 72 h) | IC50 ([5]; 72 h)
23 | OCCCc1nc(-c2ccc(F)cc2)c(-c2ncnc3oc(-c4ccccc4)cc23)o1 [Example 35, 3-[4-(4-Fluorophenyl)-5-(6-phenylfuro[2,3-d]pyrimidin-4-yl)-1,3-oxazol-2-yl]propan-1-ol] | 0.958 nM | 0.54 nM |  |  |  | 5950 nM | 134 nM | 185 nM
24 | CN1CC=C(c2cc3c(-c4cn(CCCO)nc4-c4ccc(F)cc4)ccnc3[nH]2)CC1 [Example 14, 3-{3-(4-Fluorophenyl)-4-[2-(1-methyl-1,2,3,6-tetrahydropyridin-4-yl)-1H-pyrrolo[2,3-b]pyridin-4-yl]-1H-pyrazol-1-yl}propan-1-ol] | 7.58 nM | 3.3 nM | 1350 nM | 120 nM | 113 nM |  |  | 
